Source: patent EP1076558B1, “2-PHENYL-1-[-(2-AMINOETHOXY)-BENZYL -INDOLE IN COMBINATION WITH ESTROGENS” (Wyeth, priority 1998, dated 1999)
Counter-ions that a name gives are not always drawn.

Target: T1, estrogen receptor (Homo sapiens, UniProt P03372)
T1 construct: expressed in transfected cells; host or cells: CHO cells (ribosome-free cytosol)
T1 sequence (P03372 1-595): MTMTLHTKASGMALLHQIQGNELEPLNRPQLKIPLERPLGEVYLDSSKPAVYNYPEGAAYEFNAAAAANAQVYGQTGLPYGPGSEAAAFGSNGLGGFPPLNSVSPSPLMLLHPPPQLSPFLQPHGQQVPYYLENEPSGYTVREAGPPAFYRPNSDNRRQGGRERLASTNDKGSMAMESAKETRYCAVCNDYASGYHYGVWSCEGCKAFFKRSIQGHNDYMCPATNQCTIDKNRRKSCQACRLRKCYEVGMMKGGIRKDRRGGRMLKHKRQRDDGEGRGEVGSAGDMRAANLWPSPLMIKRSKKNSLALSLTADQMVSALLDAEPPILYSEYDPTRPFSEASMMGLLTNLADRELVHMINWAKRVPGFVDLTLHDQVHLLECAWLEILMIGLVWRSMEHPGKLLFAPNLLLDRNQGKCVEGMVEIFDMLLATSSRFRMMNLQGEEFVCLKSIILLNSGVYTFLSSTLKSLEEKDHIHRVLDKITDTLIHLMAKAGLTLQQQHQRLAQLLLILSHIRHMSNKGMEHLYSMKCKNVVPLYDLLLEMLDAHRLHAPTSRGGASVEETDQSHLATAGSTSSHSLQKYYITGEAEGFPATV
Assay: In vitro estrogen receptor binding assay
Details: not given
Description: CHO cells overexpressing the estrogen receptor were grown in 150 mm^2 dishes in DMEM + 10% dextran coated charcoal, stripped fetal bovine serum. The plates were washed twice with PBS and once with 10mM Tris-HCl, pH 7.4, 1mM EDTA. Cells were harvested by scraping the surface and then the cell suspension was placed on ice. Cells were disrupted with a hand-held motorized tissue grinder using two, 10-second bursts. […] The cytosol was then frozen and stored at -80°C. Protein concentration of the cytosol was estimated using the BCA assay with reference standard protein.
100uG/100uL of the receptor preparation was aliquoted per well. […] The plate was incubated at room temperature for 2.5 h. […] 200 uL of the supernatant solution was then removed for scintillation counting. Samples were counted to 2% or 10 minutes, whichever occurs first. […] Also, wells containing radioactivity but no cytosol were processed with charcoal to estimate unremovable DPM of [^3H]
Counts per minute (CPM) of radioactivity were automatically converted to disintegrated per minute (DPM) by the Beckman LS 7500 Scintillation Counter using a set of quenched standards to generate a H No. for each sample.
For the generation of IC50 curves, % binding is plotted vs compound. […] For a description of these methods, see Hulme, E.C., ed. […] Receptor-Ligand Interactions: A Practical Approach. IRL Press, New York.(see especially chapter 8).

Compound	IC50 [nM]
Cc1c(-c2ccc(O)cc2)n(Cc2ccc(OCCN(C(C)C)C(C)C)cc2)c2ccc(O)cc12 [Example No. 104, 1-[4-(2-Diisopropylamino-ethoxy)-benzyl]-2-(4-hydroxy-phenyl)-3-methyl-1H-indol-5-ol]	100

Same assay, conditions: competition with [3H]17β-estradiol; cytosol of CHO cells overexpressing the estrogen receptor; read-out: Receptor Binding IC50's

IC50 [nM]	Compound
28	CCCCN(C)CCOc1ccc(Cn2c(-c3ccc(O)cc3)c(C)c3cc(O)ccc32)cc1 [Example No. 105]
100	Cc1c(-c2ccc(O)cc2)n(Cc2ccc(OCC[N+](C)(C)C)cc2)c2ccc(O)cc12 [Example No. 106, 2-(4-Hydroxy-phenyl)-3-methyl-1-[4-(2-dimethyl-1-yl-ethoxy)-benzyl]-1H-indol-5-ol methiodide]

Same assay, conditions: read-out: Receptor Binding IC50's

Compound	IC50 [nM]
Cc1c(-c2ccccc2)n(Cc2ccc(OCCN3CCCCC3)cc2)c2ccccc12 [Example No. 85, 4-{3-Methyl-1-[4-(2-piperidin-1-yl-ethoxy)-benzyl]-1H-indole}]	450
Cc1c(-c2ccc(O)cc2)n(Cc2ccc(OCCN3CCCCC3)cc2)c2ccccc12 [Example No. 86, 4-{3-Methyl-1-[4-(2-piperidin-1-yl-ethoxy)-benzyl]-1H-indol-2-yl}-phenol hydrochloride]	120
Cc1c(-c2ccccc2)n(Cc2ccc(OCCN3CCCCC3)cc2)c2ccc(O)cc12 [Example No. 87, 3-Methyl-2-phenyl-1-[4-(2-piperidine-1-yl-ethoxy)-benzyl]-1H-indol-5-ol]	30
COc1ccc2c(c1)c(C)c(-c1ccc(O)cc1)n2Cc1ccc(OCCN2CCCCC2)cc1 [Example No. 88, 4-{5-Methoxy-3-methyl-1-{4-[2-(piperidin-1-yl)-ethoxy]-benzyl}-1H-indol-2-yl}-phenol]	350
COc1ccc(-c2c(C)c3cc(O)ccc3n2Cc2ccc(OCCN3CCCCC3)cc2)cc1 [Example No. 89, 2-(4-methoxy-phenyl)-3-methyl-1-{4-[2-(piperidin-1-yl)-ethoxy]-benzyl}-1H-indol-5-ol]	300
COc1ccc(-c2c(C)c3cc(OC)ccc3n2Cc2ccc(OCCN3CCCCC3)cc2)cc1 [Example No. 90, 5-Methoxy-2-(4-methoxy-phenyl)-3-methyl-1-{4-(2-piperidin-1-yl-ethoxy)-benzyl]-1H-indole]	600
CCOc1ccc(-c2c(C)c3cc(O)ccc3n2Cc2ccc(OCCN3CCCCC3)cc2)cc1 [Example No. 92, 2-(4-Ethoxv-phenyl)-3-methyl-1-[4-(2-piperidin-1-yl-ethoxy)-benzyl]-1H-indol-5-ol]	62
CCOc1ccc(-c2c(C)c3cc(O)ccc3n2Cc2ccc(OCCN3CCCCCC3)cc2)cc1 [Example No. 93, 1-[4-(2-Azepan-1-yl-ethoxy)-benzyl]-2-(4-ethoxy-phenyl)-3-methyl-1H-indol-5-ol]	90
Cc1c(-c2ccc(O)cc2)n(Cc2ccc(OCCN3CCCCC3)cc2)c2ccc(F)cc12 [Example No. 94, 4-{5-Fluoro-3-methvl-1-[4-(2-piperidin-1-yl-ethoxy)-benzyl]-1H-indol-2-yl}-phenol]	200
CCCN(CCC)CCOc1ccc(Cn2c(-c3ccc(O)cc3)c(C)c3cc(O)ccc32)cc1 [Example No. 102, 1-[4-(2-Dipropylamino-ethoxy)-benzyl]-2-(4-hydroxy-phenyl)-3-methyl-1H-indol-5-ol]	80
CCCCN(CCCC)CCOc1ccc(Cn2c(-c3ccc(O)cc3)c(C)c3cc(O)ccc32)cc1 [Example No. 103, 1-[4-(2-Dibutylamino-ethoxy)-benzyl]-2-(4-hydroxy-phenyl)-3-methyl-1H-indol-5-ol]	200
Cc1c(-c2ccc(O)cc2)n(Cc2ccc(OCCN3CCCCC3C)cc2)c2ccc(O)cc12 (centres unmarked) [Example No. 108, 2-(4-Hydroxy-phenyl)-3-methyl-1-{4-[2-(2-methyl-piperidin-1-yl)-ethoxy]-benzyl}-1H-indol-5-ol]	20
Cc1c(-c2ccc(O)cc2)n(Cc2ccc(OCCN3CCC(C)CC3)cc2)c2ccc(O)cc12 [Example No. 110, 2-(4-Hydroxy-phenyl)-3-methyl-1-{4-[2-(4-methyl-piperidin-1-yl)-ethoxy]-benzyl}-1H-indol-5-ol]	37
Cc1c(-c2ccc(O)cc2)n(Cc2ccc(OCCN3CCCC(C)(C)C3)cc2)c2ccc(O)cc12 [Example No. 111, 1-{4-[2-(3,3-Dimethyl-piperidin-1-yl)-ethoxy]-benzyl}-2-(4-hydroxy-phenyl)-3-methyl-1H-indol-5-ol]	150
Cc1c(-c2ccc(O)cc2)n(Cc2ccc(OCCN3CCC(O)CC3)cc2)c2ccc(O)cc12 [Example No. 113, 2-(4-Hydroxy-phenyl)-1-{4-[2-(4-hydroxy-piperidin-1-yl)-ethoxy]-benzyl}-3-methyl-1H-indol-5-ol]	47
Cc1c(-c2ccc(O)cc2)n(Cc2ccc(OCCN3C[C@@H]4CC[C@H]3C4)cc2)c2ccc(O)cc12 [Example No. 114, (1S,4R)-1-{4-[2-(2-Aza-bicyclo [2.2.1]hept-2-yl)-ethoxy]-benzyl}-2-(4-hydroxy-phenyl)-3-methyl-1H-indol-5-ol]	1
Cc1c(-c2ccc(O)cc2)n(Cc2ccc(OCCN3CC4(C)CC3CC(C)(C)C4)cc2)c2ccc(O)cc12 (centres unmarked) [Example No. 115, 2-(4-Hydroxy-phenyl)-3-methyl-1-{4-[2-(1,3,3-trimethyl-6-aza-bicyclo[3.2.1]oct-6-yl)-ethoxy]-benzyl}-1H-indol-5-ol]	150
Cc1c(-c2ccc(F)cc2)n(Cc2ccc(OCCN3CCCCC3)cc2)c2ccc(O)cc12 [Example No. 116, 2-(4-Fluoro-phenyl)-3-methyl-1-[4-(2-piperidine-1-yl-ethoxy)-benzyl]-1H-indol-5-ol]	40
Cc1c(-c2ccc(F)cc2)n(Cc2ccc(OCCN3CCCCCC3)cc2)c2ccc(O)cc12 [Example No. 117, 1-[4-(2-Azepan-1-yl-ethoxy)-benzyl]-2-(4-fluoro-phenyl)-3-methyl-1H-indol-5-ol]	100
Cc1c(-c2ccc3c(c2)OCO3)n(Cc2ccc(OCCN3CCCCC3)cc2)c2ccc(O)cc12 [Example No. 119, 2-Benzo[1,3]dioxol-5-yl-3-methyl-1-[4-(2-piperidin-1-yl-ethoxy)-benzyl]-1H-indol-5-ol]	70

Test system: Ishikawa cells
Assay: Ishikawa Cell Alkaline Phosphatase Assay
Format: cell-based, human
Details: Homo sapiens, Ishikawa; estrogenic activity by the alkaline phosphatase method; reference standards; read-out: ED50 values (95% C.I.)
Description: Cells were treated for 48 h prior to assay. […] Sample population for at each dose was n=8. […] Plates are placed at -80°C for a minimum of 15 minutes. Plates are thawed at 37°C followed by the addition of 150μL of 0.1 M Tris-HCl, pH 9.8, containing 4 mM para-nitrophenylphosphate (pNPP) to each well (final concentration. 3 mM pNPP). Absorbance and slope calculations were made using the […] Application program (Bio-Tek Instruments, Inc., Winooski, VT). […] Various compounds were assayed for estrogenic activity by the alkaline phosphatase method and corresponding ED50 values (95% C.I.) were calculated. The four listed in the following were used as as reference standards: A description of these methods is described by Holinka, […]., Kuramoto, H. and Gurpide, E. (1986) Effects of steroid hormones and antisteroids on alkaline phosphatase activity in human endometrial cancer cells (Ishikawa Line). Cancer Research, 46:2771-2774, and by […]. and […] simple and sensitive microtiter plate estrogen bioassay based on stimulation alkaline phosphatase in Ishikawa cells; […] Endocrinology, 6:2757-2762.

EC50 [nM]	Compound
0.13	C[C@]12CC[C@@H]3c4ccc(O)cc4CC[C@H]3[C@@H]1C[C@@H](O)[C@@H]2O [estriol]
0.36	C[C@]12CC[C@@H]3c4ccc(O)cc4CC[C@H]3[C@@H]1CCC2=O [estrone]

Same assay, conditions: estrogenic activity by the alkaline phosphatase method; reference standards; read-out: ED50 values (95% C.I.)

EC50 [nM]	Compound
1.42	C[C@]12CC[C@@H]3c4ccc(O)cc4CC[C@H]3[C@@H]1CC[C@H]2O [17α-estradiol]
